Measured values from paper PMC7478165, “Derivatisation of parthenolide to address chemoresistant chronic lymphocytic leukaemia” (MedChemComm, 2019).

How the values were obtained:
[1] = system: MEC1 CLL cell line; assay: alamarBlue assay, in vitro antileukaemic activity against MEC1 CLL cell line; format: cell-based; conditions: for LipE pEC50–clog P: MEC1 cell line pEC50 minus calculated log P
Source text: Defective p53-signalling increases genomic instability and drives tumour progression. A high frequency of p53 inactivation is found in relapsed, treatment-resistant, high risk CLL.[30] […] Owing to resource availability a subset of up to ten of these compounds was prioritised for further investigation. Compounds 2d, 2e, 2j, 2aa, 5a, 5d, 5e, 5f, 5ab and 6b were selected on the basis of reasons including ease of synthetic access, diversity across the chemical space probed and novelty. Those prepared under conditions (i)Scheme 1 (2d, 5a and 6b) were available on a scale and in a purity to directly permit follow-up studies, whereas compounds prepared under conditions (ii)Scheme 1 were prepared on a small scale so were resynthesised. These seven compounds (2e, 2j, 2aa, 5d, 5e, 5f and 5ab) were isolated on >30 mg scale in high purity and progressed to more following studies.
Following the identification of 5f as the most promising drug-like derivative of PTL from the aforementioned parallel/high-throughput screening, the anti-leukaemic activity of 5f was tested once more and compared directly with that of PTL (1) and DMAPT (2a), which serve as comparators and positive controls.
Amine 7 was successfully prepared as follows: 4-Piperidinecarboxylic acid was N-Boc protected to deliver 8 in 92% yield.[43] In order to confidently assign the NMR spectra of compound 8 J-MOD, HSQC and ^1H–^1H COSY were helpful, particularly in establishing that a broad resonance in the proton-decoupled ^13C NMR spectrum, centred on 42.8 ppm, corresponds to the ring-carbons bonded to nitrogen. The carboxylic acid of 8 was converted to the corresponding ethyl-3-keto-propanoate 9 in 24% yield. Conversion of 9 to the N-Boc protected congener 10, was achieved by treatment with acetamidine hydrochloride and potassium carbonate, furnishing 10 in 77% yield. Treatment with trifluoroacetic acid delivered desired compound 7 in 99% yield for the Boc-deprotection step (scale 200 mg, 17% over four linear steps). Thus, evidencing accessibility of amine 7 and with it in hand, it was timely to probe any activity arising from the amine alone. MEC1 sensitivity to 1, 5f and 7 was compared in parallel using the alamarBlue® assay (Fig. 6). […] A pre-peer-reviewed preprint of this article was deposited and may be viewed elsewhere.[44]

[2] = Stability in aqueous solution, pH 7.4; format: physicochemical; conditions: for half-life: pH 7.4, read-out: Stability pH 7.4 T1/2; for stability in aqueous solution: result in words
Procedure: Compounds 2d, 2e, 2f, 2g, 2j, 2aa, 5a, 5d, 5e, 5f, 5ab and 6b were subjected to in vitro DMPK testing. […] The other three (2d, 2j and 2aa) were not retained for further investigation due to poor stability (T1/2 at pH 7.4: 13, 107 and 76 min, Table 1, entries 1, 3 and 4 respectively). One obvious aspect contributing to observed stability is the propensity for PTL derivatives of this type to undergo a retro-amination (reverse-Michael-type mechanism), indeed this reverse reaction is often claimed as a pro-drug mode of action.[29a],[33] […] It is a reasonable assertion that activity observed for these unstable compounds could well be ascribed to free PTL generated rapidly in the assay.

[3] = Hepatocyte stability assay (mouse); format: in vitro ADME; conditions: mouse hepatocytes; for half-life: read-out: Hepatocyte stability (mouse) T1/2
[4] = Caco-2 permeability assay; format: in vitro ADME; conditions: for efflux ratio / Papp A→B / Papp B→A: human; for efflux ratio: Caco-2, pH 7.4; for Papp A→B / Papp B→A: Caco-2; for Papp A→B: pH 7.4, A to B; for Papp B→A: pH 7.4, B to A
[5] = Microsomal stability assay (mouse); conditions: for Mouse microsomal stability: mouse microsomes; for microsomal CLint: mouse, liver microsomes
[6] = Murine intravenous PK study; format: in vivo; conditions: IV 1 mg kg^–1; for clearance / half-life: blood, mouse; for clearance: read-out: Mouse PK (IV) Cl; for half-life: read-out: Mouse PK (IV) T1/2 (converted)
Procedure: In order to determine 5a and 5f are suitable for use as pharmaceutical agents their pharmacokinetic (PK) parameters were next probed. A murine intravenous PK study of compounds 5a and 5f at 1.0 mg kg^–1 was conducted and their concentrations in blood were measured with time (Fig. 4(a)i and (b)i and Table 2).

[7] = Murine oral (PO) PK study; format: in vivo; conditions: for Mouse PK (PO) UC (0-inf) / Cmax: PO 10 mg kg^–1; for Cmax / half-life: in vivo, mouse; for half-life: PO 10 mg kg^–1, as worded in text
Procedure: The in vivo oral bioavailability of compounds 5a and 5f was compared in a murine PK study at 10 mg kg^–1 (Fig. 4(a)ii and (b)ii and Table 2). In keeping with the intravenous findings, the murine PO half-life of 5f was twice as long as 5a (1.0 versus 0.5 hours, Table 2) and the Cmax attained by 5f was approximately 40% higher than that achieved by 5a (404 versus 283 ng mL^–1). […] Compound 5f was therefore identified as a promising potential new agent with desirable pharmacological properties towards a therapy for drug-resistant CLL.

[8] = biological target: hERG K+ channel (Homo sapiens, UniProt Q12809); assay: hERG liability assay, IonWorks patch clamp electrophysiology; format: cell-based; conditions: for IC50: eight-point curves, maximum test concentration 100 μM; for inhibition at 100 µM: read-out: hERG inhibition at top test concentration
Procedure: Early toxicological screening is an important step in derisking drug discovery programmes and is increasingly accessible.[39]
Three PTL derivatives (2a, 5a and 5f) were tested for inhibition of the hERG K^+ channel (against cisapride as a positive control) using IonWorks patch clamp electrophysiology. […] Eight-point concentration-response curves were generated using three-fold serial dilutions from a maximum final test concentration of 100 μM, results are summarised in Fig. S6. ^†

[9] = in vitro; conditions: mouse, microsomes
[10] = system: MEC1 CLL cell line; assay: cells; set-up: alamarBlue (resazurin reduction) cytotoxicity assay in MEC1 CLL cells, n = 5; conditions: Homo sapiens, read-out: alamarBlue EC50 (uM) average n=5
Procedure: Comparison of the activity of 5f with 1 (PTL) and 2a (DMAPT) Biological efforts at University of Birmingham Tissue culture, MEC1 cells were obtained from the American Type Culture Collection (Manassas, VA 20110 USA) and were cultured in RPMI 1640 medium (Sigma-Aldrich, Irvine, UK) with 10% fetal bovine serum (Sigma-Aldrich). The alamarBlue® cytotoxicity assay was conducted by seeding MEC1 cells in triplicate at density of 25000 cells/well in a 96 well plate, final volume of 200 μL. Following treatment with test compound, viability was determined by measuring the reduction of resazurin. Resazurin solution was added to each well at a final concentration of 50 μg/mL and incubated for 3 hours at 37 °C with 5% CO2. Reduction of resazurin was determined by measuring […] at 590 nm using a PheraSTAR FS plate reader (BMG Labtech). Cell viability was calculated as a fraction of the untreated cells after subtracting background fluorescence of resazurin in media only. Data is presented as the mean of five independent experiments and significance was determined by Student’s t-test.

[11] = Homo sapiens, MEC1, MEC1 cell line, alamarBlue assay, library screen, read-out: EC50 ave.
[12] = first of two columns headed A to B
[13] = second of two columns headed A to B
[14] = MEC1 cell line, alamarBlue assay, library screen, read-out: EC50 ave.
[15] = Homo sapiens, MEC1, MEC1 cell line, read-out: pEC50 (converted)
[16] = Homo sapiens, MEC1, MEC1 cells, alamarBlue, direct comparison of 5f with PTL and DMAPT, n = 5, read-out: EC50

Chain of hERG K+ channel (Q12809 whole entry): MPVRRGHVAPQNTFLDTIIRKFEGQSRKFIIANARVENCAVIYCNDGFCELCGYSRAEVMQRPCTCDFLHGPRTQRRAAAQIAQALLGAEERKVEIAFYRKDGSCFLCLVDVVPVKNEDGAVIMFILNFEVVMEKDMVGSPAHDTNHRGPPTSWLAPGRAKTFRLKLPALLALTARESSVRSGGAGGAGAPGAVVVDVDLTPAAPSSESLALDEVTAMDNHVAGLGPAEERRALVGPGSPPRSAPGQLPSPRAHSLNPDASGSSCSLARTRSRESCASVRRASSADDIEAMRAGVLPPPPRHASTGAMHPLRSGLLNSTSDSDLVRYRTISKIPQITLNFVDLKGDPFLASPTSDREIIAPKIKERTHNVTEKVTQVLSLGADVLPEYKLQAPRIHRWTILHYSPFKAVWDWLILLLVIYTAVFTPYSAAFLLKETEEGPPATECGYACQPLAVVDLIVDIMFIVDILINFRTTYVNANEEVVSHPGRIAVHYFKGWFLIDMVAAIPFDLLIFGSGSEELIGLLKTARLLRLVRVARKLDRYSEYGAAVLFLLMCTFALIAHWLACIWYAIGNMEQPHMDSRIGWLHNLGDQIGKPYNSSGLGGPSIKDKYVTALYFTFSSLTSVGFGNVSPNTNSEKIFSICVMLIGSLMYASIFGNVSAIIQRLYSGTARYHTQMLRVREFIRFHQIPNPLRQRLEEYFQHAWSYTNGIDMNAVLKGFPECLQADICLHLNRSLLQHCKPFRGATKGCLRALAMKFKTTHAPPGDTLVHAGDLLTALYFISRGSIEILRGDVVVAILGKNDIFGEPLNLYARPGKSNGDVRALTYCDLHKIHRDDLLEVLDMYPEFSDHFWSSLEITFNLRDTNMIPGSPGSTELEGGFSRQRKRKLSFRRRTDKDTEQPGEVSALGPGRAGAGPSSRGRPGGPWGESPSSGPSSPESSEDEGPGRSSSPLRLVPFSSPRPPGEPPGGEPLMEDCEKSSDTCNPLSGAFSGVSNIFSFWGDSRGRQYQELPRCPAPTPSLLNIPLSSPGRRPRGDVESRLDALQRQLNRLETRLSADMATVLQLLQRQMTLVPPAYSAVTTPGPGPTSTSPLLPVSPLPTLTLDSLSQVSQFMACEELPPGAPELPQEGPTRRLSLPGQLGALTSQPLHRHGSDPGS

| Compound | EC50 [1, 11] [µM] | LipE pEC50–clog P [1] | half-life [2] [h] | Hepatocyte stability (mouse) CLint [3] | half-life [3] [h] | efflux ratio [4] | Papp A→B [4] [×10⁻⁶ cm/s] | Papp B→A [4] [×10⁻⁶ cm/s] | Mouse microsomal stability [5, 12] | Mouse microsomal stability [5, 13] | EC50 [1, 14] [µM] | inhibition at 100 µM ([8]; human) [%] | further results |
| --- | --- | --- | --- | --- | --- | --- | --- | --- | --- | --- | --- | --- | --- |
| C/C1=C\CC[C@@]2(C)O[C@@H]2[C@H]2OC(=O)[C@@H](CN3CCCC3)[C@@H]2CC1 [C00005] | 7.7 | 2.35 | > 2 | 22.0 μL min^–1 per million cells | 1.08 | 1 | 15.9 | 16.2 | 19 | 75 | – | – | – |
| C/C1=C\CC[C@@]2(C)O[C@@H]2[C@H]2OC(=O)[C@@H](CN3CCC(c4cc(O)nc(C)n4)CC3)[C@@H]2CC1 [C00008] | – | 3.69 | > 2 | 22.0 μL min^–1 per million cells | 1.07 | – | 2.7 | 2.8 | 18 | 77 | 7.7 | – | Caco-2 pH 7.4 Efflux ratio [4]: 1.1 |
| C/C1=C\CC[C@@]2(C)O[C@@H]2[C@H]2OC(=O)[C@@H](CN[C@@H](Cc3ccccc3)C(=O)O)[C@@H]2CC1 [C00010] | – | 3.66 | > 2 | 16.0 μL min^–1 per million cells | 1.47 | – | 1.5 | 4.2 | 9 | 160 | 13.5 | – | Caco-2 pH 7.4 Efflux ratio [4]: 2.7 |
| CC1=CCCC2(C)OC2C2OC(=O)C(CN3CCCC3)C2CC1 (centres unmarked) [Compound 5a] | < 15 | 2.35 | – | – | – | 1 | – | – | – | – | 7.7 | 45 | EC50 [1, 15]: 7.76 µM; stability in aqueous solution [2]: greater than two hours; Mouse PK (IV) UC (0-inf) [6]: 80.5 ng h mL^–1; clearance [6]: 207 mL/min/kg; half-life [6]: 0.66 h; Mouse PK (PO) UC (0-inf) [7]: 711 ng h mL^–1; Cmax [7]: 283 ng/mL; half-life [7]: 0.5 h; IC50 [8]: > 100 µM; microsomal CLint [5]: 19 µL/min/mg |
| C/C1=C\CC[C@@]2(C)O[C@@H]2[C@H]2OC(=O)[C@@H](CN3CCC(O)(c4ccccc4)CC3)[C@@H]2CC1 [Compound 5e] | – | – | – | – | – | – | – | – | – | – | < 15 | – | microsomal CLint [9]: > 100 µL/min/mg |
| C/C1=C\CC[C@@]2(C)O[C@@H]2[C@H]2OC(=O)[C@@H](CN3CCC(c4cc(O)nc(C)n4)CC3)[C@@H]2CC1 [Compound 5f] | < 15 | 3.69 | – | – | – | 1.1 | – | – | – | – | 7.7 | 24 | EC50 [1, 15]: 7.76 µM; EC50 ([1]; Homo sapiens, MEC1, MEC1 cells, alamarBlue, 1, 5f and 7 compared in parallel, CalcuSyn, read-out: EC50): 4.3 µM; EC50 [1, 16]: 4.5 µM; effect of NAC pre-treatment on activity ([1]; MEC1 cells, pre-treatment with N-acetylcysteine (NAC)): abrogated activity; stability in aqueous solution [2]: greater than two hours; Mouse PK (IV) UC (0-inf) [6]: 289 ng h mL^–1; clearance [6]: 58 mL/min/kg; half-life [6]: 1.14 h; Mouse PK (PO) UC (0-inf) [7]: 1696 ng h mL^–1; Cmax [7]: 404 ng/mL; half-life [7]: 1 h; hERG liability flag [8]: inactive; IC50 ([8]; human): > 100 µM; microsomal CLint [5]: 18 µL/min/mg |
| C/C1=C\CC[C@@]2(C)O[C@@H]2[C@H]2OC(=O)[C@@H](CN(C)C)[C@@H]2CC1 [DMAPT, dimethyl amino-PTL, reference compound] | – | 3.19 | – | – | – | – | – | – | – | – | – | 40 | EC50 [1, 16]: 5.6 µM; IC50 [8]: > 100 µM |
| C/C1=C\CC[C@@]2(C)O[C@@H]2[C@H]2OC(=O)[C@@H](CN(C)C)[C@@H]2CC1 [DMAPT, dimethyl amino-PTL] | – | – | – | – | – | – | – | – | – | – | – | – | EC50 [10]: 5.3 µM |
